Data as given in publication PMC9737972, “Dual LSD1 and HDAC6 Inhibition Induces Doxorubicin Sensitivity in Acute Myeloid Leukemia Cells” (Cancers, 2022).

Columns and labels:
[1] = molecular target: T1, HDAC8 (Homo sapiens, UniProt Q9BY41); experiment: Cellular thermal shift assay (CETSA), HDAC8; format: cell-based; settings: THP-1 cells, 1 h; 4 μM (methods, Figure 2), Figure S14 legend 500 nM
T1 construct: endogenous in cells; host or cells: THP-1
T1 sequence (Q9BY41 1-377): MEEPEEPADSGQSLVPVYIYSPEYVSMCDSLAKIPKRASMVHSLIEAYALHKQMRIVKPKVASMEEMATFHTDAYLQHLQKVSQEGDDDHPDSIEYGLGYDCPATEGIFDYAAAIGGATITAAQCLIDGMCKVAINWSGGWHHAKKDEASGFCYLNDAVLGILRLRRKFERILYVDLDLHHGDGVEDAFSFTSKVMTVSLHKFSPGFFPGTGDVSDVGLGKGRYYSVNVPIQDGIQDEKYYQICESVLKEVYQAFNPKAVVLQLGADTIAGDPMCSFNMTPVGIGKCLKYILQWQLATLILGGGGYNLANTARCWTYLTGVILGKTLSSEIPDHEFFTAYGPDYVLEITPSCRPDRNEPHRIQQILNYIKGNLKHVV
Method: THP-1 cells, 1 × 10^7 cells at a density of 1 × 10^6 cells/mL, were treated with 4 μM of test compounds (1 h, 37 °C, 5% CO2). Cells were centrifuged, and the pellet was resuspended with 1 × Phosphate Buffer Saline (Gibco, Grand Island, NY, USA, #10010023) containing 1 × Protease Inhibitor Cocktail (Cell Signaling Technology, Beverly, MA, USA, #5871) and 1 mM phenylmethylsulfonyl fluoride (PMSF, Sigma Aldrich, St. Louis, MO, USA, #10837091001). The suspension volume was divided equally and heated for 3 min at 43–64 °C in a T100 Thermal Cycler (Bio-rad, Hercules, CA, USA). For protein extraction, cells were snap-frozen using liquid nitrogen, thawed twice (25 °C, 1 min), then centrifuged (20,000× g, 15 min, 4 °C). Following centrifugation, protein containing supernatants were denatured at 70 °C for 10 min and loaded on SDS-PAGE gels (Bio-Rad, Hercules, CA, USA, 161-0317). […] The signal was detected with BIORAD Chemi-Doc XRS+ System and by using Immobilon Forte Western HRP Substrate (WBLUF0500).

[2] = tested on: THP-1 cells; experiment: Combination treatment with antileukemic drugs, THP-1 cell viability; format: cell-based; settings: compound 5 μM 72 h, then compound + etoposide 0.2 μM 48 h
[3] = tested on: LSD1 and HDAC substrates in THP-1 cells; experiment: Western blot of methylation and acetylation levels of LSD1 and HDAC substrates; format: cell-based; settings: 4 μM
[4] = tested on: MDA-MB-231; experiment: Wound healing assay, MDA-MB-231; format: cell-based; settings: 4 μM, 72 h, 1% FBS
Method: Figure S20. Wound healing assay with iDual and ricolinostat. (A) MDA-MB-231 and (B) DU-145 […]
and ricolinostat for 72 h cells grown in relative medium with (1%) FBS conditions. Wound healing is photographed with Nikon Eclipse TS 100 microscope. Wound/healed area is quantified using Image […]

[5] = molecular target: T2, N-ter-GST-HDAC-6 (Homo sapiens, UniProt Q9UBN7); experiment: HDAC-Glo I/II enzyme assay, HDAC6; format: biochemical
T2 construct: GST (N); purchased BPS Bioscience 50006
T2 sequence (Q9UBN7 1-1215): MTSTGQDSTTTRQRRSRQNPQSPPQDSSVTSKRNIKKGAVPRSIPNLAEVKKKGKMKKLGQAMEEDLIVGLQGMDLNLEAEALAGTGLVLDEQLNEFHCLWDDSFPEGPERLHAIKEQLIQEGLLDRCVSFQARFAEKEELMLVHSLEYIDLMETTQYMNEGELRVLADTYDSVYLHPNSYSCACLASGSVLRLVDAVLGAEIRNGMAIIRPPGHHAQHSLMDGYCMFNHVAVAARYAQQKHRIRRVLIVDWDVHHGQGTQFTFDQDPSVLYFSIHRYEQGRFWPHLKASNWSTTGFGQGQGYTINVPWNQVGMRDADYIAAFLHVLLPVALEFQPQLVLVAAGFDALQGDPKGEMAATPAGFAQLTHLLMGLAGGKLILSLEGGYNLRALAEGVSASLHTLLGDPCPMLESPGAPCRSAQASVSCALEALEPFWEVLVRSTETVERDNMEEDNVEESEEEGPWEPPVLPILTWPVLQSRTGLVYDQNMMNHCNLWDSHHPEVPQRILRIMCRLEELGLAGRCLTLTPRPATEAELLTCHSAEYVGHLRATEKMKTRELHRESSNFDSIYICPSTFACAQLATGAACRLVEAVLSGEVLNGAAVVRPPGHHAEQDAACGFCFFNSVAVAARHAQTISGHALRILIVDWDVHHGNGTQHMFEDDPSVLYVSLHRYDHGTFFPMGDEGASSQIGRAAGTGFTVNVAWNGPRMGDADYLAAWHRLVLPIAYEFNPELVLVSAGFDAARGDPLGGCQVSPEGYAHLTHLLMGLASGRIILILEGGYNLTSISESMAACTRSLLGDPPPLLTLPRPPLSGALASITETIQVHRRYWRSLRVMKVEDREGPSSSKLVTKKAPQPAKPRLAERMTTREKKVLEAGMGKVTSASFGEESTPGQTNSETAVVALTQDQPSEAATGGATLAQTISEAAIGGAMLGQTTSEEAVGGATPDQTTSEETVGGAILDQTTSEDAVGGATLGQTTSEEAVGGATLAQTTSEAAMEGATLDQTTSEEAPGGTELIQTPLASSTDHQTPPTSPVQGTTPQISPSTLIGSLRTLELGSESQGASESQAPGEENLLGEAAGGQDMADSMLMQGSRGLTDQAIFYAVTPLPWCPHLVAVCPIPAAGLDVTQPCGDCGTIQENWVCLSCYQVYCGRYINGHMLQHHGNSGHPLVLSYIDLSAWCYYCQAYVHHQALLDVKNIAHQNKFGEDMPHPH

HDAC6/HDAC1 isoform selectivity [5] [fold] | IC50 ([5]; ± standard error, three independent measurements) [nM] | SMILES | thermal stabilization of HDAC8 (CETSA) [1] | cell viability after pre-treatment with compound and co-treatment with etoposide [2] | levels of the histone substrate H3K4me2 ([3]; 24 h) | nuclear histone H3 acetylation (H3K18ac and H3K27ac levels), change vs DMSO ([3]; 24 h (ricolinostat 0.75 μM or 4 μM)) | wound healing capacity MDA-MB-231 [4]
 |  | O=C(NO)c1ccc(CN2CCC(CN[C@@H]3C[C@H]3c3ccccc3)CC2)cc1 (relative stereo) [iDual] | not significantly stabilized | decreased cell viability was not observed | increase | two-fold | slowed down
> 30 | 230 ± 20 | O=C(NO)c1ccc(CN2CCC(CNC3(c4ccccc4)CC3)CC2)cc1 [iHDAC6] |  |  |  |  | 
